These results are taken from ChEMBL document CHEMBL4837240 (J Med Chem, 2021).

Calls of active or inactive are those of the source. The calls are words filed in the database; no cut-off is given here.

In data set [1] the target is Vascular endothelial growth factor receptor 3 (Mus musculus) (UniProt P35917). The data set is described as follows: In vivo inhibition of VEGFR3 phosphorylation in BALB/c mouse xenografted with MDA-MB-231 cells assessed as decrease in AKT phosphorylation at 25 mg/kg, po by immunohistochemistry analysis. It counts as functional, organism-based.
Another data set deals with HDLEC. In words: Upregulation of E-cadherin protein expression in human dermal lymphatic endothelial cells incubated for 24 hrs by Western blot analysis. It counts as functional. On the technique in general: In western blotting, separated proteins are transferred to a membrane and probed.
Data set [2] has as its target T1, Vascular endothelial growth factor receptor 3 (Homo sapiens, UniProt P35916). In words: Inhibition of VEGFR3 phosphorylation in human dermal lymphatic endothelial cells incubated for 24 hrs by Western blot analysis. It counts as tissue-based. Particulars: HDLEC.
Data set [3] can be described thus: Toxicity in BALB/c mouse xenografted with MDA-MB-231 cells assessed as change in liver at 300 mg/kg, po by hematoxylin and eosin staining based analysis. It counts as organism-based. Particulars: in vivo.
The target of data set [4] is Vascular endothelial growth factor receptor 2 (Homo sapiens, UniProt P35968). In words: Inhibition of human KDR/VEGFR2.
Data set [5] is described as follows: Toxicity in BALB/c mouse xenografted with MDA-MB-231 cells assessed as change in spleen at 300 mg/kg, po by hematoxylin and eosin staining based analysis. It counts as organism-based. Particulars: in vivo.
Data set [6] concerns Mus musculus. In words: Decrease in MMP-2 level in BALB/c mouse xenografted with MDA-MB-231 cells in tumor tissue at 25 mg/kg, po by immunohistochemistry analysis. It counts as functional, organism-based.
Data set [7] is described as follows: Apparent volume of distribution in Sprague-Dawley rat at 1 mg/kg, iv by LC-MS analysis. It counts as ADME, organism-based. Particulars: in vivo, read-out: Vz.
Data set [8] deals with MDA-MB-436. The data set is described as follows: Downregulation of MMP2 protein expression in human MDA-MB-436 cells up to 10 uM incubated for 24 hrs by Western blot analysis. It counts as functional, cell-based. Particulars: dose microM <=10, time 24.0 hrs.
In data set [9] the target is T1, Vascular endothelial growth factor receptor 3. In words: Inhibition of VEGFR3 in human MDA-MB-231 cells assessed as inhibition of AKT phosphorylation at 2.5 uM incubated for 24 hrs by Western blot analysis. In kind it is cell-based.
The test system of data set [10] is MDA-MB-231. The data set is described as follows: Antimigratory activity against human MDA-MB-231 cells assessed as suppression of migration measured after 24 hrs by Wound healing assay. It counts as functional, cell-based.
Data set [11] in a line: Clearance in Sprague-Dawley rat at 1 mg/kg, iv by LC-MS analysis. In kind it is ADME, organism-based. Particulars: in vivo.
Data set [12] in a line: Cmax in Sprague-Dawley rat at 1 mg/kg, iv by LC-MS analysis. It counts as ADME, organism-based. Further details: route intravenous, dose 1 mg/kg. Particulars: in vivo.
The subject of data set [13] is Mus musculus. The data set is described as follows: Decrease in E-cadherin level in BALB/c mouse xenografted with MDA-MB-231 cells in tumor tissue at 25 mg/kg, po by immunohistochemistry analysis. It counts as functional, organism-based.
The target of data set [14] is T1, Vascular endothelial growth factor receptor 3. The data set is described as follows: Inhibition of VEGFR3 in human MDA-MB-436 cells assessed as inhibition of STAT5 phosphorylation at 2.5 uM incubated for 24 hrs by Western blot analysis. It counts as cell-based.
The test system of data set [15] is MDA-MB-231. The data set is described as follows: Induction of apoptosis in human MDA-MB-231 cells assessed as accumulation at G1 phase incubated for 48 hrs by flow cytometry. In kind it is functional, cell-based. On the technique in general: In flow cytometry, cells or beads pass a laser one at a time.
Data set [16] deals with Mus musculus. The data set is described as follows: Upregulation of E-cadherin protein expression human MDA-MB-231 cells injected into vein of BALB/c mouse lung metastatic model at 50 mg/kg, po once a day measured on day 21 by […]. In kind it is functional, organism-based.
The test system of data set [17] is MDA-MB-436. The data set is described as follows: Induction of apoptosis in human MDA-MB-436 cells assessed as apoptotic cells at 2.5 uM incubated for 48 hrs by flow cytometry. In kind it is functional.
Data set [18] has as its target T2, Vascular endothelial growth factor receptor 1 (Mus musculus) (UniProt P35969).
T2 sequence (whole entry): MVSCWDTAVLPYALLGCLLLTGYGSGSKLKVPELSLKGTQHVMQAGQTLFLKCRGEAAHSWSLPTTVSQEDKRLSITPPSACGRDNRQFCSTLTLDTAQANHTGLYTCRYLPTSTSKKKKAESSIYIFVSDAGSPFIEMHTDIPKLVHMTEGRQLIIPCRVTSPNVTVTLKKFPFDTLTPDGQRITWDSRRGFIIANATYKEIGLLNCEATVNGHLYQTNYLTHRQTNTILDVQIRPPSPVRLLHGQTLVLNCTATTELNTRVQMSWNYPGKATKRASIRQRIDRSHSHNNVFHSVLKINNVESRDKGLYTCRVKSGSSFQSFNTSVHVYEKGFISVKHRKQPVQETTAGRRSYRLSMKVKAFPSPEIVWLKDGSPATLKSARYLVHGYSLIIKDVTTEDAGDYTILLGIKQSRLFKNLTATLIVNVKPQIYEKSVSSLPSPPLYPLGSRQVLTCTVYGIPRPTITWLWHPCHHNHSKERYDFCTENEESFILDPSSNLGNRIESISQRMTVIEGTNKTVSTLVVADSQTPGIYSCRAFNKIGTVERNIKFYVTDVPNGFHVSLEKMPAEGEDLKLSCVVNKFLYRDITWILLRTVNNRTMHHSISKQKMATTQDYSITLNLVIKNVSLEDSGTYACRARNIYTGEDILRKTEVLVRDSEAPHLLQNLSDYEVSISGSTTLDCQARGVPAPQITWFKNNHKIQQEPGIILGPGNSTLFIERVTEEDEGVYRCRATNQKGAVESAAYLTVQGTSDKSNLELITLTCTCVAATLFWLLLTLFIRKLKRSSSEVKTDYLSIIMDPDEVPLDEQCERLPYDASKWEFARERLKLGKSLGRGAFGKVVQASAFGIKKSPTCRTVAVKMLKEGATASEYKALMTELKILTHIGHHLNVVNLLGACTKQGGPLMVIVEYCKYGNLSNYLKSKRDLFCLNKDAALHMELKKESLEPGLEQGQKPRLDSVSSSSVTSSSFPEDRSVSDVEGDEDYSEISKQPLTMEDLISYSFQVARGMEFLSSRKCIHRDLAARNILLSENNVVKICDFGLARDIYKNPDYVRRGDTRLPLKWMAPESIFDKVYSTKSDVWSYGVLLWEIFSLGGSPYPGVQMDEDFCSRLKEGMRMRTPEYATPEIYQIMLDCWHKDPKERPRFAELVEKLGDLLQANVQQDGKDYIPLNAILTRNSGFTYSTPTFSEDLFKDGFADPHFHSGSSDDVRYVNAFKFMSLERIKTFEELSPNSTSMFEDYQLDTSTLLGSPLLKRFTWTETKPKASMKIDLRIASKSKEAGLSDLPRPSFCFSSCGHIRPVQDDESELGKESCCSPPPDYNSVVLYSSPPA
In words: In vivo inhibition of VEGFR1 phosphorylation in BALB/c mouse xenografted with MDA-MB-231 cells at 25 mg/kg, po by immunohistochemistry analysis. It counts as functional, organism-based.

A short description of data set [19]: Bioavailability in Sprague-Dawley rat at 1 mg/kg, iv by LC-MS analysis. In kind it is ADME, organism-based. Particulars: in vivo.
Data set [20] deals with MDA-MB-436. In words: Anticancer activity against human MDA-MB-436 cells assessed as cell viability incubated for 48 hrs by MTT assay. Particulars: MDA-MB-436, 48 h. A general note: Tetrazolium assays rely on reduction of a dye to a coloured formazan, in cell work by metabolically active cells.
For the next data set, the species on record is Danio rerio. The data set is described as follows: Antiangiogenesis activity against transgenic zebrafish with GFP-labeled vascular endothelial cells assessed as inhibition of subintestinal vessels at 10 uM incubated for 24 hrs by fluorescence microscopy. It counts as functional, organism-based.
A short description of data set [21]: Toxicity in BALB/c mouse xenografted with MDA-MB-231 cells assessed as LDH level in blood at 300 mg/kg, po. Particulars: in vivo. In kind it is organism-based.

T1 sequence (P35916 whole entry): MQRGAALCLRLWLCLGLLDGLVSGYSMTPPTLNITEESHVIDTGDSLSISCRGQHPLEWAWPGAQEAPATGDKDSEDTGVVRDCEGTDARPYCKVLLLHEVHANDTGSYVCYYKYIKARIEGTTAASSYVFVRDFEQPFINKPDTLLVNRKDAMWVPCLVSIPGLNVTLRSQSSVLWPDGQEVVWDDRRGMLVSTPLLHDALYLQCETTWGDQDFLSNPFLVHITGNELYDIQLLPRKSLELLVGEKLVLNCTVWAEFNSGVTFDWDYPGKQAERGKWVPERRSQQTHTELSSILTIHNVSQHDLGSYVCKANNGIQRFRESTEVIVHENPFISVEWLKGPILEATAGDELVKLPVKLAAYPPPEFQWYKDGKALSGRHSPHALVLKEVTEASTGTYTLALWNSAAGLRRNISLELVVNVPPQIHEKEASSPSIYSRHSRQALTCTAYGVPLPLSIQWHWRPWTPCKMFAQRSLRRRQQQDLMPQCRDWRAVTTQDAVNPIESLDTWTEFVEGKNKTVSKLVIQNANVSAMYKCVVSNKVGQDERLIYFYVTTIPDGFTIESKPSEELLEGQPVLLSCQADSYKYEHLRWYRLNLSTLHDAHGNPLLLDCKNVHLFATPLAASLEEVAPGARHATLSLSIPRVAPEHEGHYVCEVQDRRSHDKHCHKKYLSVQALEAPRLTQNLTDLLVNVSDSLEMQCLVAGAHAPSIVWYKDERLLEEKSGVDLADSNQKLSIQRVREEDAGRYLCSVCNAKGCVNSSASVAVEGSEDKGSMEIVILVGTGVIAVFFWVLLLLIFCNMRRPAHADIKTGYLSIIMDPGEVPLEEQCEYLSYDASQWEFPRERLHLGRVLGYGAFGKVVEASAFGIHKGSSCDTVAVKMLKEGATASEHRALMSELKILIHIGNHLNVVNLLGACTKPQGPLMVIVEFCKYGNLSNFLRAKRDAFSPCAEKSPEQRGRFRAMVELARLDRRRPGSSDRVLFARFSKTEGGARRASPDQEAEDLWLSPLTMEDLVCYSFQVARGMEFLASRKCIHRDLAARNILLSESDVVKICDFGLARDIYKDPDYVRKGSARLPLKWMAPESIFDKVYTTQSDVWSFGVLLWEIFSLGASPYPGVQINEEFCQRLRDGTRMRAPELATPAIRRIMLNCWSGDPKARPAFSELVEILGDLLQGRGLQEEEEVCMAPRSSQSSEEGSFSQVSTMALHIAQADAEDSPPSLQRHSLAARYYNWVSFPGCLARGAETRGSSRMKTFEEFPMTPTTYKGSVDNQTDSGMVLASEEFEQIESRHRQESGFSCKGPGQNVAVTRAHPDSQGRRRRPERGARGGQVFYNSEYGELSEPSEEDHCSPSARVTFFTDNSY
Vascular endothelial growth factor receptor 3 (Mus musculus), sequence (P35917 whole entry): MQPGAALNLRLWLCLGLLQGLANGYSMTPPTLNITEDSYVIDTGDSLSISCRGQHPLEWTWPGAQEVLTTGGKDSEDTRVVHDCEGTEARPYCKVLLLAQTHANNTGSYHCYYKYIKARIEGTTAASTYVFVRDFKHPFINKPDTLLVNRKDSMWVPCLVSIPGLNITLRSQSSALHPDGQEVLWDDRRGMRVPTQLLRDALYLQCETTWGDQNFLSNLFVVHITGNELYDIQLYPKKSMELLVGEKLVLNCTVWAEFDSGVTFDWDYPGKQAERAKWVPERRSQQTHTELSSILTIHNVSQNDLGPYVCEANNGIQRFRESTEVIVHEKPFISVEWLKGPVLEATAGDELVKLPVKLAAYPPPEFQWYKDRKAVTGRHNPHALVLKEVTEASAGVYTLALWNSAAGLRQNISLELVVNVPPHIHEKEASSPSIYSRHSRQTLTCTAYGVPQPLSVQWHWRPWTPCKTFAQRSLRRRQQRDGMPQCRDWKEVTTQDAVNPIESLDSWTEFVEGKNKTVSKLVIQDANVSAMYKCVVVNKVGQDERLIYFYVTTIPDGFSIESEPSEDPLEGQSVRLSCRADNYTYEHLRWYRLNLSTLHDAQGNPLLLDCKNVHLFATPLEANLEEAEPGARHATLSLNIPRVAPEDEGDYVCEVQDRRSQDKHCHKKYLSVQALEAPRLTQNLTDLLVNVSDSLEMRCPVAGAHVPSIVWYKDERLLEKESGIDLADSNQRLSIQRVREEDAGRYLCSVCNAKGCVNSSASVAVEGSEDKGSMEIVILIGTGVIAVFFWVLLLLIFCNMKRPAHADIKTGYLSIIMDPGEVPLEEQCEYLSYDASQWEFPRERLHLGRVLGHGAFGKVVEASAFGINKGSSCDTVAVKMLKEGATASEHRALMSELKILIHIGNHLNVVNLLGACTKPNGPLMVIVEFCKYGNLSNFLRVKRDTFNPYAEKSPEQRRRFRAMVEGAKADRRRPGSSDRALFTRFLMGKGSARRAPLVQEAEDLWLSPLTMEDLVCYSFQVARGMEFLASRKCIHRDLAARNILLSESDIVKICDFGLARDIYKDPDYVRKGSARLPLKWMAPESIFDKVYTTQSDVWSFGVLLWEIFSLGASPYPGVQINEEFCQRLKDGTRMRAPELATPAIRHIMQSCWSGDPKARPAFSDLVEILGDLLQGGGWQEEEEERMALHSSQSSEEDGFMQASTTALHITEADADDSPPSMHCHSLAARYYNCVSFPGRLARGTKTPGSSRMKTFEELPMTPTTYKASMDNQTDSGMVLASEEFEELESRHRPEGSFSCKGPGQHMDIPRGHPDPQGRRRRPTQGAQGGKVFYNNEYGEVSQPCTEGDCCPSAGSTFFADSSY
Vascular endothelial growth factor receptor 2, sequence (P35968 whole entry): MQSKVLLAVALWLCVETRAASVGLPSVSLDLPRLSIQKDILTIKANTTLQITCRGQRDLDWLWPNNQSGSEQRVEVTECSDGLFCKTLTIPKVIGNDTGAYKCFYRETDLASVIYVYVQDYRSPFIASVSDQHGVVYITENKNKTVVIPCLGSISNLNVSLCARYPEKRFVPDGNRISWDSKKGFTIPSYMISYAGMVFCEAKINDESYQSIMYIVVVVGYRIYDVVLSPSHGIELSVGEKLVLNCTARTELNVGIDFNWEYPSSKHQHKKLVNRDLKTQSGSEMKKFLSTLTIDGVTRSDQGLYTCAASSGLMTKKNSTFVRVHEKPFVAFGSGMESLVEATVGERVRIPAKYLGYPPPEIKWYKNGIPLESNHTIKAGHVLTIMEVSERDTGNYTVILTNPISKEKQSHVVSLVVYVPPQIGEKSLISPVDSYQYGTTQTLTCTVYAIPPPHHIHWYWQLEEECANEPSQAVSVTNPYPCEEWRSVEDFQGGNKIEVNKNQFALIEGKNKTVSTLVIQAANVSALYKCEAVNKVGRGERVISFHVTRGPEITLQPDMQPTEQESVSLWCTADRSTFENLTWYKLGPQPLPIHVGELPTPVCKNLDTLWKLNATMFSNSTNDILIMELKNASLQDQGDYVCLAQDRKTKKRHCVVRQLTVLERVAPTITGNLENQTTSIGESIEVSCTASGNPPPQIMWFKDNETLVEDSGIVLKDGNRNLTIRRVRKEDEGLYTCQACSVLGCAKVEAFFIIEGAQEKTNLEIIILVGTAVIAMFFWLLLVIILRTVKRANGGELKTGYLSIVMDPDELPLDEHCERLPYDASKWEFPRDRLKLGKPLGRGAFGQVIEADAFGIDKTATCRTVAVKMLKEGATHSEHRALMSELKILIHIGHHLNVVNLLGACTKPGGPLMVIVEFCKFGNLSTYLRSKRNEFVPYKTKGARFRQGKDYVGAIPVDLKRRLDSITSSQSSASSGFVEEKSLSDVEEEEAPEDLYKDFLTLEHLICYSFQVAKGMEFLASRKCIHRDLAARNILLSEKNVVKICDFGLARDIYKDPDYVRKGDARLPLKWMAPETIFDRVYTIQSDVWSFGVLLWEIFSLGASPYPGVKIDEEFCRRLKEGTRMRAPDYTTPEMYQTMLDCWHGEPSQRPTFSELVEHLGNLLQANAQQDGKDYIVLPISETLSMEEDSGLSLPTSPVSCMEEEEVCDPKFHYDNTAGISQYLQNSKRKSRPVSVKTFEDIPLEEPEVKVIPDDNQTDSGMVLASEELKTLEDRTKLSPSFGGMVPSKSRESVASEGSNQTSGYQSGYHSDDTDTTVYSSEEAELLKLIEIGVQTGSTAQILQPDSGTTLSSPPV

One may read the IC50 as the concentration that gives 50% inhibition. Broadly, the clearance is the rate of elimination divided by the concentration. A word on the Cmax: it is the highest concentration seen after dosing. What is called bioavailability is dose-corrected exposure relative to a reference, in per cent. In the case of `CN1CCN(c2ccc(-c3cc4c(N5CCN(C(=O)Nc6ccc(Cl)c(C(F)(F)F)c6)CC5)ncnc4s3)cc2)CC1`, the outcome (in data set [1]; with HDLEC; with Mus musculus [6]; with MDA-MB-436 [8]; in the data set on MDA-MB-231 [10]; with Mus musculus [13]) was Active. Also, the result in the data set on Mus musculus [16] was Active. Besides, the inhibition entry in [2] was “Dose-Dependent Effect”. Moreover, the Activity entry was “Non-Toxic” in data set [3]; “Non-Toxic” in [5]; “Dose-Dependent Effect” in the data set with MDA-MB-231 [15]; 30.5% in the data set with MDA-MB-436 [17]; “Non-Toxic” in data set [21]. In addition, the half-inhibitory concentration (IC50) in [4] is more than 10 µM; in the data set on MDA-MB-436 [20], 3.5 µM. For the same compound, the Vd in [7] was found to be 5.4 L/kg. The inhibition result (in data set [9]; in [14]; in the data set filed under Danio rerio) was “Active” each time. The clearance in data set [11] came to 0.288 L/h/kg. Besides, the Cmax in [12] stood at 0.42 µg/mL. Further, the result in data set [18] was inactive. The bioavailability in [19] was found to be 30.9%.
